{"source": "patent US8540766B2", "about": "“Biofilm formation inhibitor and treatment device thereof” (Kyushu University, National University Corporation, priority 2004, dated 2013)", "key": {"E. coli [1]": {"tested_on": "E. coli", "details": "comparison among catechins; cited from earlier work"}, "[2]": {"details": "high dosage long-term oral administration; cited from earlier work"}, "E. coli [3]": {"tested_on": "E. coli", "assay": "Sensitivity of E. coli to EGCg (dilution method, MIC)", "assay_type": "cell-based", "details": "E. coli 1×10^7 CFU/ml, 37 degrees Celsius, 24 hours, static", "experimental": "Sensitivity of E. coli to EGCg was examined by a general sensibility test method (dilution method). E. coli suspensions (1×10^7 CFU/ml), in which gradually diluted (0.16, 0.31, 0.63, 1.25, 2.5, 5.0 mM) epigallocatechin gallate (EGCg) solutions were mixed, were placed in a culture plate and incubated at 37 degrees Celsius for 24 hours under a static condition. Minimal inhibitory concentration (MIC) was defined as the smallest EGCg concentration in which no bacteria growth is recognized macroscopically."}, "E. coli [4]": {"tested_on": "E. coli", "assay": "Inhibitory effect of EGCg on biofilm formation on polyurethane discs (static, plate count)", "assay_type": "cell-based", "details": "E. coli 2×10^3 CFU/ml, 37 degrees Celsius, 24 hours, listed as epigallocatechin gallate (EGCg)", "experimental": "8 mm diameter disc shaped polyurethanes were cultured with an E. coli suspension (2×10^3 CFU/ml) which was mixed with various concentrations of epigallocatechin gallate (EGCg) (0-0.2 mM) under a static condition at 37 degrees Celsius for 24 hours in a culture plate. After incubations, the polyurethane discs were taken out, and having been washed in a phosphate buffer gently, they were moved to a 2 ml phosphate buffer, where they were sonicated to detach the adhered E. coli. Viable E. coli cell counts in the liquid were calculated by the plate count method."}, "E. coli in biofilm": {"tested_on": "E. coli in biofilm", "assay": "Effect of EGCg on living microbes after biofilm formation", "assay_type": "cell-based", "details": "24 hours biofilm, then 24 hours exposure; listed as epigallocatechin gallate (EGCg)", "experimental": "Biofilms were formed on polyurethane surfaces after incubating 8 mm diameter polyurethane discs placed in a culture plate with an E. coli suspension (2×10^3 CFU/ml) under a static condition at 37 degrees Celsius for 24 hours. After adding solutions with various degrees of epigallocatechin gallate (EGCg) concentration (0-50 mM) to the biofilm surfaces that were formed, they were exposed for another 24 hours. After the polyurethane discs were taken out, and washed with a phosphate buffer solution gently, they were moved to a 2 ml phosphate buffer solution and sonicated to detach adhered E. coli. Viable E. coli cell count in this liquid was counted by the plate count method. […] These levels of concentration are much higher compared to the Example 1 where catechin was placed from the beginning of incubation."}}, "note": "Where “and” joins values, the source holds several entries; their conditions need not be identical. Identical values can stand only once."}
{"molecule": "O=C(O[C@@H]1Cc2c(O)cc(O)cc2O[C@@H]1c1cc(O)c(O)c(O)c1)c1cc(O)c(O)c(O)c1", "note": "[EGCg, epigallocatechin gallate]", "values": [{"measurement": "antibacterial action / minimal inhibitory concentration against E. coli, among the catechins", "setting": "E. coli [1]", "result": "smallest minimal inhibitory concentration against E. coli"}, {"measurement": "side effects / safety to the human body", "setting": "[2]", "result": "no side effect has been reported"}, {"measurement": "minimal inhibitory concentration (MIC)", "setting": "E. coli [3]", "result": "0.63 mM and 287 μg/ml"}, {"measurement": "concentration at which biofilm formation is inhibited completely", "setting": "E. coli [4]", "result": "≥ 0.15 mM and ≥ 0.069 mg/ml"}, {"measurement": "concentration at which biofilm formation is inhibited significantly", "setting": "E. coli [4]", "result": "≥ 0.12 mM and ≥ 0.055 mg/ml"}, {"measurement": "concentration at which E. coli in biofilm were exterminated completely", "setting": "E. coli in biofilm", "result": "50 mM and 23 mg/ml"}, {"measurement": "concentration at which viable cell counts in formed biofilm decreased significantly", "setting": "E. coli in biofilm", "result": "≥ 8 mM and ≥ 3.7 mg/ml"}]}
